Assay results from ChEMBL document CHEMBL3217615, “Novel 3,5-bis(arylidiene)-4-piperidone based monocarbonyl analogs of curcumin: anticancer activity evaluation and mode of action study” (2014).

Legend:
Assay type in all cases: functional
SN12C = assay: Growth inhibition of human SN12C cells assessed as cell growth at 10^-5 M after 48 hrs by sulforhodamine B assay; conditions: read-out: Activity
T47D = assay: Growth inhibition of human T47D cells assessed as cell growth at 10^-5 M after 48 hrs by sulforhodamine B assay; conditions: read-out: Activity
A549 = assay: Growth inhibition of human A549/ATCC cells assessed as cell growth at 10^-5 M after 48 hrs by sulforhodamine B assay; conditions: A549, 48 h, read-out: Activity
RPMI-8226 = assay: Growth inhibition of human RPMI8226 cells assessed as cell growth at 10^-5 M after 48 hrs by sulforhodamine B assay; conditions: RPMI-8226, 48 h, read-out: Activity
MDA-MB-231 = assay: Growth inhibition of human MDA-MB-231 cells assessed as cell growth at 10^-5 M after 48 hrs by sulforhodamine B assay; conditions: MDA-MB-231, 48 h, read-out: Activity
DU-145 = assay: Growth inhibition of human DU145 cells assessed as cell growth at 10^-5 M after 48 hrs by sulforhodamine B assay; conditions: DU-145, 48 h, read-out: Activity
[1] = Growth inhibition of human NCI-ADR-RES cells assessed as cell growth at 10^-5 M after 48 hrs by sulforhodamine B assay; conditions: read-out: Activity
MDA-MB-435 = assay: Growth inhibition of human MDA-MB-435 cells assessed as cell growth at 10^-5 M after 48 hrs by sulforhodamine B assay; conditions: MDA-MB-435, 48 h, read-out: Activity
SW-620 = assay: Growth inhibition of human SW620 cells assessed as cell growth at 10^-5 M after 48 hrs by sulforhodamine B assay; conditions: SW-620, 48 h, read-out: Activity
[2] = Growth inhibition of human HCT15 cells assessed as cell growth at 10^-5 M after 48 hrs by sulforhodamine B assay; conditions: HCT-15, 48 h, read-out: Activity
MCF7 = assay: Growth inhibition of human MCF7 cells assessed as cell growth at 10^-5 M after 48 hrs by sulforhodamine B assay; conditions: MCF7, 48 h, read-out: Activity
NCI-H522 = assay: Growth inhibition of human NCI-H522 cells assessed as cell growth at 10^-5 M after 48 hrs by sulforhodamine B assay; conditions: NCI-H522, 48 h, read-out: Activity
[3] = Growth inhibition of human HOP92 cells assessed as cell growth at 10^-5 M after 48 hrs by sulforhodamine B assay; conditions: HOP-92, 48 h, read-out: Activity
[4] = Growth inhibition of human UACC62 cells assessed as cell growth at 10^-5 M after 48 hrs by sulforhodamine B assay; conditions: UACC-62, 48 h, read-out: Activity
NCI-H322M = assay: Growth inhibition of human NCI-H322M cells assessed as cell growth at 10^-5 M after 48 hrs by sulforhodamine B assay; conditions: read-out: Activity
A498 = assay: Growth inhibition of human A498 cells assessed as cell growth at 10^-5 M after 48 hrs by sulforhodamine B assay; conditions: A498, 48 h, read-out: Activity
[5] = Growth inhibition of human OVCAR5 cells assessed as cell growth at 10^-5 M after 48 hrs by sulforhodamine B assay; conditions: OVCAR-5, 48 h, read-out: Activity
SNB-19 = assay: Growth inhibition of human SNB19 cells assessed as cell growth at 10^-5 M after 48 hrs by sulforhodamine B assay; conditions: SNB-19, 48 h, read-out: Activity
NCI-H460 = assay: Growth inhibition of human NCI-H460 cells assessed as cell growth at 10^-5 M after 48 hrs by sulforhodamine B assay; conditions: NCI-H460, 48 h, read-out: Activity
786-0 = assay: Growth inhibition of human 786-0 cells assessed as cell growth at 10^-5 M after 48 hrs by sulforhodamine B assay; conditions: 786-0, 48 h, read-out: Activity
[6] = Growth inhibition of human Hs 578T cells assessed as cell growth at 10^-5 M after 48 hrs by sulforhodamine B assay; conditions: read-out: Activity
IGROV-1 = assay: Growth inhibition of human IGROV1 cells assessed as cell growth at 10^-5 M after 48 hrs by sulforhodamine B assay; conditions: IGROV-1, 48 h, read-out: Activity
KM12 = assay: Growth inhibition of human KM12 cells assessed as cell growth at 10^-5 M after 48 hrs by sulforhodamine B assay; conditions: KM12, 48 h, read-out: Activity
NCI-H226 = assay: Growth inhibition of human NCI-H226 cells assessed as cell growth at 10^-5 M after 48 hrs by sulforhodamine B assay; conditions: NCI-H226, 48 h, read-out: Activity
ACHN = assay: Growth inhibition of human ACHN cells assessed as cell growth at 10^-5 M after 48 hrs by sulforhodamine B assay; conditions: read-out: Activity
[7] = Growth inhibition of human BT549 cells assessed as cell growth at 10^-5 M after 48 hrs by sulforhodamine B assay; conditions: BT-549, 48 h, read-out: Activity
CAKI-1 = assay: Growth inhibition of human CAKI-1 cells assessed as cell growth at 10^-5 M after 48 hrs by sulforhodamine B assay; conditions: CAKI-1, 48 h, read-out: Activity
[8] = Growth inhibition of human HCC2998 cells assessed as cell growth at 10^-5 M after 48 hrs by sulforhodamine B assay; conditions: HCC 2998, 48 h, read-out: Activity
HCT-116 = assay: Growth inhibition of human HCT116 cells assessed as cell growth at 10^-5 M after 48 hrs by sulforhodamine B assay; conditions: HCT-116, 48 h, read-out: Activity
MDA-MB-468 = assay: Growth inhibition of human MDA-MB-468 cells assessed as cell growth at 10^-5 M after 48 hrs by sulforhodamine B assay; conditions: MDA-MB-468, 48 h, read-out: Activity
HT-29 = assay: Growth inhibition of human HT-29 cells assessed as cell growth at 10^-5 M after 48 hrs by sulforhodamine B assay; conditions: HT-29, 48 h, read-out: Activity
SK-MEL-28 = assay: Growth inhibition of human SK-MEL-28 cells assessed as cell growth at 10^-5 M after 48 hrs by sulforhodamine B assay; conditions: SK-MEL-28, 48 h, read-out: Activity
SR = assay: Growth inhibition of human SR cells assessed as cell growth at 10^-5 M after 48 hrs by sulforhodamine B assay; conditions: read-out: Activity
HL-60(TB) = assay: Growth inhibition of human HL-60(TB) cells assessed as cell growth at 10^-5 M after 48 hrs by sulforhodamine B assay; conditions: HL-60, 48 h, read-out: Activity
CCRF-CEM = assay: Growth inhibition of human CCRF-CEM cells assessed as cell growth at 10^-5 M after 48 hrs by sulforhodamine B assay; conditions: read-out: Activity
[9] = Growth inhibition of human OVCAR4 cells assessed as cell growth at 10^-5 M after 48 hrs by sulforhodamine B assay; conditions: OVCAR-4, 48 h, read-out: Activity

Cc1ccc(S(=O)(=O)N2C/C(=C\c3c(Cl)cccc3Cl)C(=O)/C(=C/c3c(Cl)cccc3Cl)C2)cc1
growth at 10 µM (SN12C): 85.6%
growth at 10 µM (T47D): 94%
growth at 10 µM (A549): 77.1%
growth at 10 µM (RPMI-8226): 82.9%
growth at 10 µM (MDA-MB-231): 64.3%
growth at 10 µM (DU-145): 96.8%
growth at 10 µM [1]: 90.9%
growth at 10 µM (MDA-MB-435): 93.5%
growth at 10 µM (SW-620): 101%
growth at 10 µM [2]: 80.7%
growth at 10 µM (MCF7): 64.5%
growth at 10 µM (NCI-H522): 88.6%
growth at 10 µM [3]: 73.5%
growth at 10 µM [4]: 69.5%
growth at 10 µM (NCI-H322M): 93.5%
growth at 10 µM (A498): 109%
growth at 10 µM [5]: 103%
growth at 10 µM (SNB-19): 95.7%
growth at 10 µM (NCI-H460): 83.3%
growth at 10 µM (786-0): 93.3%
growth at 10 µM [6]: 101%
growth at 10 µM (IGROV-1): 104%
growth at 10 µM (KM12): 88.7%
growth at 10 µM (NCI-H226): 98.1%
growth at 10 µM (ACHN): 84.2%
growth at 10 µM [7]: 101%
growth at 10 µM (CAKI-1): 61.6%
growth at 10 µM [8]: 114%
growth at 10 µM (HCT-116): 74.2%
growth at 10 µM (MDA-MB-468): 90.4%
growth at 10 µM (HT-29): 83.7%
growth at 10 µM (SK-MEL-28): 101%
growth at 10 µM (SR): 71.1%
growth at 10 µM (HL-60(TB)): 94.5%
growth at 10 µM (CCRF-CEM): 72.7%
growth at 10 µM [9]: 85.3%
